US8604202B2, “Thienopyridone derivatives as AMP-activated protein kinase (AMPK) activators” (Merck Patent GmbH, priority 2008, dated 2013)

biological target: T1, AMPK protein (recombinant α1β1γ2) (Homo sapiens, UniProt Q13131+Q9Y478); assay: AMPK enzymatic activity (Delfia, AMARA peptide); type: biochemical; details: compound 30 μM vs AMP 30 μM; 125 μM ATP; 30 min room temperature; ratio 90% or higher = direct activator
T1 construct: made in house; host or cells: E. coli
Description: The following biological test allows the determination of the efficacy of such compounds of formula (I) onto AMPK protein (recombinant α1β1γ2).
Human recombinant AMPK enzyme was expressed in E. Coli and was reactivated in vitro by LKB1 prior to enzyme activity determination.
AMPK enzyme activities were assayed by using A Delfia technology. AMPK enzyme activities were carried out in microtiter plates (50 mM Hepes buffer, pH 7.4 with 125 μM ATP respectively) in the presence of a synthetic peptide substrate (AMARAASAAALARRR, the “AMARA” peptide) and activators in serial dilutions. Reactions were initiated by the addition of AMPK (50-100 ng). Following mixing, the plates were incubated for 30 min at room temperature. Enzyme activity was assayed by using an anti-phosphoserine antibody to measure the quantity of phosphate incorporated into the AMARAA.
Ratio between the % of control (basal activity) of compound of formula (I) at 30 μM and the % of control (basal activity) of AMP (natural substrate) at 30 μM. Compounds of formula (I) in the table II are considered as direct activator of AMPK if the ratio is 90% or higher.

T1 sequence (Q13131 whole entry): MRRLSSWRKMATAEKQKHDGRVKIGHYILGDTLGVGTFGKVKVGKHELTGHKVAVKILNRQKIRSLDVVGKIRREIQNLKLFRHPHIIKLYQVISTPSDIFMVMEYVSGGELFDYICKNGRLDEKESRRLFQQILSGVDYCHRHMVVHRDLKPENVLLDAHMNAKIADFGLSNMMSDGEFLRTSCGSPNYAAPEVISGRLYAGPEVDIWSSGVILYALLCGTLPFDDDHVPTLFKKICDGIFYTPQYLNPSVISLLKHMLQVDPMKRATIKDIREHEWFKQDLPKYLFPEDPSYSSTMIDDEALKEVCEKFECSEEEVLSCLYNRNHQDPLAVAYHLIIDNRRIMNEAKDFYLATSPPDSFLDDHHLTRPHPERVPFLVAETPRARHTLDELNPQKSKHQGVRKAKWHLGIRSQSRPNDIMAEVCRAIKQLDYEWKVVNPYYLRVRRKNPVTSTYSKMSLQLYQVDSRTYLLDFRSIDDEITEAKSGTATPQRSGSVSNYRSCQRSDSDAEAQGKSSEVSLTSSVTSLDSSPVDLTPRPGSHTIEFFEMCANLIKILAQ
T1 sequence (Q9Y478 whole entry): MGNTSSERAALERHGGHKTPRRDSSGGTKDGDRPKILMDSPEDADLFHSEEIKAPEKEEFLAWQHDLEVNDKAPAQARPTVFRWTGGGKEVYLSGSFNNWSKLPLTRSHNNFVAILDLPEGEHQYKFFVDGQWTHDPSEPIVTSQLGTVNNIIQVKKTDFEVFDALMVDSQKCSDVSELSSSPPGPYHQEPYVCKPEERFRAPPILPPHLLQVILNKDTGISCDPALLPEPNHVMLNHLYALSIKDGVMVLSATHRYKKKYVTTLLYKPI
T1 sequence (Q9UGJ0 whole entry partner): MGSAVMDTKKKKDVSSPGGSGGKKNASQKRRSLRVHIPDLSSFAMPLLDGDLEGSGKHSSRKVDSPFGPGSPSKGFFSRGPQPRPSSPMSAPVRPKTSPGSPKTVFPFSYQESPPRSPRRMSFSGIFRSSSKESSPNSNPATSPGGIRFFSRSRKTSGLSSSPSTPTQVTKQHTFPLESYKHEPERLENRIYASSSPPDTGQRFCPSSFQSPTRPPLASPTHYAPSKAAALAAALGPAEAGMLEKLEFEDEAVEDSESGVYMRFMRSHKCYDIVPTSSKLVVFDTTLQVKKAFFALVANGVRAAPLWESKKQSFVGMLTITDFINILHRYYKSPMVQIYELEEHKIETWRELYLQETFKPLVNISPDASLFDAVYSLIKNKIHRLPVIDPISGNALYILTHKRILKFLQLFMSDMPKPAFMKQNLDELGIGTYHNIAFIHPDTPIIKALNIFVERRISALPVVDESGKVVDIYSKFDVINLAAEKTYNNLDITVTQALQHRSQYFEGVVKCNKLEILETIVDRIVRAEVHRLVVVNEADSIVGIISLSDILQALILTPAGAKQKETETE

SMILES | activity: Ratio between the % of control (basal activity) of compound of formula (I) at 30 μM and the % of control (basal activity) of AMP at 30 μM [%]
O=c1[nH]c2sc(Cl)c(-c3ccc(-c4ccccc4O)cc3)c2c(O)c1-c1ccccc1 [Compound 5, 2-chloro-4-hydroxy-3-(2′-hydroxybiphenyl-4-yl)-5-phenyl-6,7-dihydro-thieno[2,3-b]pyridin-6-one] | 138
O=c1[nH]c2scc(-c3ccc(-c4cccc(F)c4)cc3)c2c(O)c1-c1ccccc1 [Compound 10, 3-(3′-fluorobiphenyl-4-yl)-4-hydroxy-5-phenyl-6,7-dihydro-thieno[2,3-b]pyridin-6-one] | 153
O=c1[nH]c2scc(-c3ccc(-c4ccc(O)cc4)cc3)c2c(O)c1-c1ccccc1 [Compound 12, 4-hydroxy-3-(4′-hydroxybiphenyl-4-yl)-5-phenyl-6,7-dihydro-thieno[2,3-b]pyridin-6-one] | 139
O=c1[nH]c2scc(-c3ccc(-c4ccc(F)cc4)cc3)c2c(O)c1-c1ccccc1 [Compound 13, 3-(4′-fluorobiphenyl-4-yl)-4-hydroxy-5-phenyl-6,7-dihydro-thieno[2,3-b]pyridin-6-one] | 206
Cc1ccc(-c2ccc(-c3csc4[nH]c(=O)c(-c5ccccc5)c(O)c34)cc2)cc1 [Compound 14, 4-hydroxy-3-(4′-methylbiphenyl-4-yl)-5-phenyl-6,7-dihydro-thieno[2,3-b]pyridin-6-one] | 176
O=c1[nH]c2scc(-c3ccc(-c4ccc(C(F)(F)F)cc4)cc3)c2c(O)c1-c1ccccc1 [Compound 16, 4-hydroxy-5-phenyl-3-(4′-trifluoromethylbiphenyl-4-yl)-6,7-dihydro-thieno[2,3-b]pyridin-6-one] | 101
N#Cc1cccc(-c2ccc(-c3csc4[nH]c(=O)c(-c5ccccc5)c(O)c34)cc2)c1 [Compound 17, 3-(3′-cyanobiphenyl-4-yl)-4-hydroxy-5-phenyl-6,7-dihydro-thieno[2,3-b]pyridin-6-one] | 116
N#Cc1ccc(-c2ccc(-c3csc4[nH]c(=O)c(-c5ccccc5)c(O)c34)cc2)cc1 [Compound 19, 3-(4′-cyanobiphenyl-4-yl)-4-hydroxy-5-phenyl-6,7-dihydro-thieno[2,3-b]pyridin-6-one] | 217
O=c1[nH]c2scc(-c3ccc(-c4ccc(F)cc4O)cc3)c2c(O)c1-c1ccccc1 [Compound 21, 3-(4′-fluoro-2′-hydroxybiphenyl-4-yl)-4-hydroxy-5-phenyl-6,7-dihydro-thieno[2,3-b]pyridin-6-one] | 187
O=c1[nH]c2scc(-c3ccc(-c4ccc(F)cc4)cc3)c2c(O)c1-c1ccncc1 [Compound 23, 3-(4′-fluorobiphenyl-4-yl)-4-hydroxy-5-pyridin-4-yl-6,7-dihydro-thieno[2,3-b]pyridin-6-one] | 163
Cc1ccc(-c2ccc(-c3csc4[nH]c(=O)c(-c5ccncc5)c(O)c34)cc2)cc1 [Compound 24, 4-hydroxy-3-(4′-methylbiphenyl-4-yl)-5-pyridin-4-yl-6,7-dihydro-thieno[2,3-b]pyridin-6-one] | 191
COC(=O)c1ccc(-c2ccc(-c3csc4[nH]c(=O)c(-c5ccncc5)c(O)c34)cc2)cc1 [Compound 25, Methyl 4′-(4-hydroxy-6-oxo-5-pyridin-4-yl-6,7-dihydro-thieno[2,3-b]pyridin-3-yl)biphenyl-4-carboxylate] | 154
O=c1[nH]c2scc(-c3ccc(-c4ccccc4)cc3)c2c(O)c1-c1ccncc1 [Compound 26, 3-biphenyl-4-yl-4-hydroxy-5-pyridin-4-yl-6,7-dihydro-thieno[2,3-b]pyridin-6-one] | 258
O=c1[nH]c2scc(-c3ccc(-c4ccoc4)cc3)c2c(O)c1-c1ccncc1 [Compound 27, 3-[4-(3-furyl)phenyl]-4-hydroxy-5-pyridin-4-yl-6,7-dihydro-thieno[2,3-b]pyridin-6-one] | 199
O=c1[nH]c2scc(-c3ccc(-c4ccccc4O)cc3)c2c(O)c1-c1ccncc1 [Compound 28, 4-hydroxy-3-(2′-hydroxybiphenyl-4-yl)-5-pyridin-4-yl-6,7-dihydro-thieno[2,3-b]pyridin-6-one] | 246
O=c1[nH]c2scc(-c3ccc(-c4ccc(O)cc4)cc3)c2c(O)c1-c1ccncc1 [Compound 29, 4-hydroxy-3-(4′-hydroxybiphenyl-4-yl)-5-pyridin-4-yl-6,7-dihydro-thieno[2,3-b]pyridin-6-one] | 213
O=c1[nH]c2scc(-c3ccc(-c4ccncc4)cc3)c2c(O)c1-c1ccncc1 [Compound 30, 4-hydroxy-5-pyridin-4-yl-3-(4-pyridin-4-ylphenyl)-6,7-dihydro-thieno[2,3-b]pyridin-6-one] | 212
O=c1[nH]c2scc(-c3ccc(-c4ccccc4O)cc3)c2c(O)c1-c1cccnc1 [Compound 31, 4-hydroxy-3-(2′-hydroxybiphenyl-4-yl)-5-pyridin-3-yl-6,7-dihydro-thieno[2,3-b]pyridin-6-one] | 143
O=c1[nH]c2scc(-c3ccc(-c4ccccc4F)cc3)c2c(O)c1-c1cccnc1 [Compound 32, 3-(2′-fluorobiphenyl-4-yl)-4-hydroxy-5-pyridin-3-yl-6,7-dihydro-thieno[2,3-b]pyridin-6-one] | 159
O=c1[nH]c2scc(-c3ccc(-c4cccc(F)c4)cc3)c2c(O)c1-c1cccnc1 [Compound 33, 3-(3′-fluorobiphenyl-4-yl)-4-hydroxy-5-pyridin-3-yl-6,7-dihydro-thieno[2,3-b]pyridin-6-one] | 147
O=c1[nH]c2scc(-c3ccc(-c4ccc(F)cc4)cc3)c2c(O)c1-c1cccnc1 [Compound 34, 3-(4′-fluorobiphenyl-4-yl)-4-hydroxy-5-pyridin-3-yl-6,7-dihydro-thieno[2,3-b]pyridin-6-one] | 165
Cc1ccc(-c2ccc(-c3csc4[nH]c(=O)c(-c5cccnc5)c(O)c34)cc2)cc1 [Compound 37, 4-hydroxy-3-(4′-methylbiphenyl-4-yl)-5-pyridin-3-yl-6,7-dihydro-thieno[2,3-b]pyridin-6-one] | 168
O=c1[nH]c2scc(-c3ccc(-c4ccoc4)cc3)c2c(O)c1-c1cccnc1 [Compound 38, 4-hydroxy-3-[4-(3-furyl)phenyl]-5-pyridin-3-yl-6,7-dihydro-thieno[2,3-b]pyridin-6-one] | 145
O=c1[nH]c2scc(-c3ccc(-c4cccc(CO)c4)cc3)c2c(O)c1-c1cccnc1 [Compound 39, 4-hydroxy-3-(3′-hydroxymethylbiphenyl-4-yl)-5-pyridin-3-yl-6,7-dihydro-thieno[2,3-b]pyridin-6-one] | 147
O=c1[nH]c2scc(-c3ccc(-c4cccnc4)cc3)c2c(O)c1-c1cccnc1 [Compound 40, 4-hydroxy-5-pyridin-3-yl-3-(4-pyridin-3-ylphenyl)-6,7-dihydro-thieno[2,3-b]pyridin-6-one] | 162
COc1cc(F)ccc1-c1ccc(-c2csc3[nH]c(=O)c(-c4ccccc4)c(O)c23)cc1 [Compound 42, 3-(4′-fluoro-2′-methoxybiphenyl-4-yl)-4-hydroxy-5-phenyl-6,7-dihydro-thieno[2,3-b]pyridin-6-one] | 107
O=c1[nH]c2scc(-c3ccc(-c4ccc(O)cc4O)cc3)c2c(O)c1-c1ccccc1 [Compound 43, 4-hydroxy-3-(2′,4′-dihydroxybiphenyl-4-yl)-5-phenyl-6,7-dihydro-thieno[2,3-b]pyridin-6-one] | 139
COc1cc(-c2csc3[nH]c(=O)c(-c4ccccc4)c(O)c23)ccc1-c1ccccc1 [Compound 45, 4-hydroxy-3-(2-methoxybiphenyl-4-yl)-5-phenyl-6,7-dihydro-thieno[2,3-b]pyridin-6-one] | 120
